In US5484934A, “Isothiazole derivatives, a process for production thereof and uses thereof” (Nihon Nohyaku Co., Ltd., priority 1992, dated 1996):

How the values were obtained:
Coriolus versicolor = assay: Inhibition of hypha growth on malt extract agar, Coriolus versicolor; format: cell-based; settings: Trametes versicolor, 28±2° C., 2 to 10 days, read-out: Controlling effect (growth inhibition rate) COV
[1] = system: Pseudoperonospora cubensis; assay: Controlling effect on cucumber Downy mildew; format: in vivo; settings: 168 h, 200 ppm spray, inoculation after 24 hours, read-out: Controlling effect Pc (cucumber downy mildew)
Phytophthora infestants = assay: whole plant or invertebrate; format: in vivo; settings: 168 h; read-out: Controlling effect Pi (tomato late blight)
Pyricularia oryzae = assay: whole plant or invertebrate; format: in vivo; settings: 168 h, read-out: Controlling effect Ps (rice blast)
Botrytis cinerea = assay: Controlling effect (curing effect) on cucumber gray mold; format: in vivo; settings: 72 h, immersion of inoculated cotyledons, 15° C., read-out: Controlling effect Bc (cucumber gray mold)
Method: Controlling effect (curing effect) on cucumber gray mold The cotyledons of potted cucumber plants at the 1 leaf stage were cut off and each of them was inoculated with a mycelial tuft of gray mold fungus (Botrytis cinerea) cultured on PSA medium. After having been placed in a moist chamber at 15° C. for 24 hours, the cotyledons were immersed in a 200 ppm liquid chemical containing each compound of the present invention as active ingredient. […]

Alternaria mali = assay: Inhibition of hypha growth on malt extract agar, Alternaria mali; settings: read-out: Controlling effect (growth inhibition rate) ALM
Serpula lacrymans = assay: Inhibition of hypha growth on malt extract agar, Serpula lacrymans; settings: read-out: Controlling effect (growth inhibition rate) SEL
Method: (§1) Each preparation to be tested was added to malt extract agar medium to adjust the concentration to 50 ppm, and the resulting mixture was dispensed into Petri dishes. As an inoculum, a prepared mycerial tuft of each test fungus was punched out together with agar by means of a 4-mm-diameter cork borer and inoculated on medium. The incubation temperature was adjusted to 28±2° .C (or 18±2° C. in the case of Selupula lacrymas).
(§2) The diameter of mycerial tuft was measured 2 to 10 days after the inoculation, and the inhibition rate of hypha growth (the following equation) was measured.

Aspergillus niger = assay: Inhibition of hypha growth on malt extract agar, Aspergillus niger; settings: read-out: Controlling effect (growth inhibition rate) ASN
Trichoderma viride = assay: Inhibition of hypha growth on malt extract agar, Trichoderma viride; settings: read-out: Controlling effect (growth inhibition rate) TRV
Method: as §1, §2

Fusarium oxysporum = assay: Inhibition of hypha growth on malt extract agar, Fusarium oxysporum; settings: read-out: Controlling effect (growth inhibition rate) FUO
Method: as §1, §2
(§3) The controlling effect was evaluated according to the following criterion.

Rhizopus nigricans = assay: Inhibition of hypha growth on malt extract agar, Rhizopus nigricans; settings: Rhizopus stolonifer, read-out: Controlling effect (growth inhibition rate) RHS
Method: as §1, §2

Tyromyces palustris = assay: Inhibition of hypha growth on malt extract agar, Tyromyces palustris; settings: read-out: Controlling effect (growth inhibition rate) TYP
Method: as §1, §2

Chaetomium globosum = assay: Inhibition of hypha growth on malt extract agar, Chaetomium globosum; settings: read-out: Controlling effect (growth inhibition rate) CHG
Method: as §1, §2, §3

[2] = system: Cladosporium cladosporioides; assay: Inhibition of hypha growth on malt extract agar, Cladosporium cladosporioides; settings: read-out: Controlling effect (growth inhibition rate) CLC
Method: as §1, §2

Structure (SMILES)	inhibition at 50 ppm (Coriolus versicolor) [%]	pest or weed control at 200 ppm [1] [%]	pest or weed control at 200 ppm (Phytophthora infestants) [%]	pest or weed control at 200 ppm (Pyricularia oryzae) [%]	pest or weed control at 200 ppm (Botrytis cinerea) [%]	inhibition at 50 ppm (Alternaria mali) [%]	inhibition at 50 ppm (Serpula lacrymans) [%]	inhibition at 50 ppm (Aspergillus niger) [%]	inhibition at 50 ppm (Trichoderma viride) [%]	inhibition at 50 ppm (Fusarium oxysporum) [%]	inhibition at 50 ppm (Rhizopus nigricans) [%]	inhibition at 50 ppm (Tyromyces palustris) [%]	inhibition at 50 ppm (Chaetomium globosum) [%]	inhibition at 50 ppm [2] [%]
C#CCOc1nsc(S(=O)(=O)CCOCC)c1C#N [Compound 82]	100	95 to 100	95 to 100	95 to 100	60 to 79	100	100	100	100	100	100	100	100	100
CC(C)S(=O)(=O)c1snc(OC(F)F)c1C#N [Compound 27]	–	80 to 94	95 to 100	95 to 100	0 to 59	–	–	–	–	–	–	–	–	–
CCOc1nsc(S(=O)(=O)C(C)C)c1C#N [Compound 38]	–	95 to 100	95 to 100	95 to 100	60 to 79	–	–	–	–	–	–	–	–	–
COc1nsc([S+](C)[O-])c1C#N (stereo not drawn) [Compound 15, 3-methoxy-4-cyano-5-methylsulfoxyisothiazole]	100	95 to 100	95 to 100	95 to 100	60 to 79	100	100	100	100	100	100	100	100	100
C#CCOc1nsc(S(=O)(=O)c2ccccc2)c1C#N [Compound 104]	–	80 to 94	95 to 100	95 to 100	60 to 79	–	–	–	–	–	–	–	–	–
C=CCOc1nsc(S(C)(=O)=O)c1C#N [Compound 22]	100	80 to 94	95 to 100	95 to 100	0 to 59	85 to 99	100	85 to 99	85 to 99	85 to 99	85 to 99	100	55 to 84	100
COc1nsc(S(=O)(=O)C(F)F)c1C#N [Compound 140]	100	95 to 100	95 to 100	95 to 100	95 to 100	100	100	100	100	100	100	100	100	100
C#CCOc1nsc(S(=O)(=O)c2ccc(Cl)cc2)c1C#N [Compound 120]	–	95 to 100	95 to 100	95 to 100	60 to 79	–	–	–	–	–	–	–	–	–
COc1nsc(S(=O)(=O)c2ccc(Cl)cc2)c1C#N [Compound 93]	100	95 to 100	95 to 100	95 to 100	60 to 79	100	100	100	100	100	100	100	100	100
CCCCS(=O)(=O)c1snc(OC(C)C)c1C#N [Compound 52]	–	95 to 100	95 to 100	80 to 94	60 to 79	–	–	–	–	–	–	–	–	–
CCOc1nsc(S(=O)(=O)C(F)F)c1C#N [Compound 141]	–	95 to 100	95 to 100	95 to 100	80 to 94	–	–	–	–	–	–	–	–	–
CCC(C)Oc1nsc(S(=O)(=O)C(F)F)c1C#N (stereo not drawn) [Compound 145]	–	95 to 100	95 to 100	95 to 100	0 to 59	–	–	–	–	–	–	–	–	–
C#CCOc1nsc(S(=O)(=O)C(F)F)c1C#N [Compound 148]	100	80 to 94	95 to 100	95 to 100	60 to 79	100	100	100	100	100	100	100	100	100
COc1nsc(S(=O)(=O)c2ccc(C)cc2)c1C#N [Compound 90, 3-methoxy-4-cyano-5-(4-methylphenyl) sulfonylisothiazole]	–	95 to 100	95 to 100	95 to 100	60 to 79	–	–	–	–	–	–	–	–	–
CCOc1nsc(S(=O)(=O)CC)c1C#N [Compound 23]	–	95 to 100	95 to 100	95 to 100	60 to 79	–	–	–	–	–	–	–	–	–
C#CCOc1nsc([S+](C)[O-])c1C#N (stereo not drawn) [Compound 16]	85 to 99	95 to 100	95 to 100	80 to 94	60 to 79	100	100	100	100	85 to 99	100	100	100	100
COc1nsc(S(=O)(=O)c2ccccc2)c1C#N [Compound 89, 3-methoxy-4-cyano-5-phenylsulfonylisothiazole]	100	80 to 94	95 to 100	95 to 100	60 to 79	100	100	100	100	100	100	100	100	100
N#Cc1c(O)nsc1S(=O)(=O)c1ccccc1 [Compound 1, 3-hydroxy-4-cyano-5-phenylsulfonylisothiazole]	85 to 99	60 to 79	60 to 79	80 to 94	0 to 59	55 to 84	85 to 99	55 to 84	85 to 99	55 to 84	85 to 99	55 to 84	85 to 99	55 to 84
CCOc1nsc(S(C)(=O)=O)c1C#N [Compound 21]	–	95 to 100	95 to 100	95 to 100	60 to 79	–	–	–	–	–	–	–	–	–
C#CCOc1nsc(S(=O)(=O)CC)c1C#N [Compound 58]	–	95 to 100	95 to 100	80 to 94	0 to 59	–	–	–	–	–	–	–	–	–
CCS(=O)(=O)c1snc(OC(F)F)c1C#N [Compound 25]	–	95 to 100	95 to 100	80 to 94	60 to 79	–	–	–	–	–	–	–	–	–
COc1nsc(S(=O)(=O)C(C)C)c1C#N [Compound 35]	–	95 to 100	95 to 100	95 to 100	0 to 59	–	–	–	–	–	–	–	–	–
CCS(=O)(=O)c1snc(OC)c1C#N [Compound 37]	–	95 to 100	95 to 100	95 to 100	0 to 59	–	–	–	–	–	–	–	–	–
CCOC(=O)c1ccccc1S(=O)(=O)c1snc(O)c1C#N [Compound 5]	–	60 to 79	80 to 94	60 to 79	0 to 59	–	–	–	–	–	–	–	–	–
